Assay results taken from ChEMBL document CHEMBL6127121, “Development of N-(4-(1H-Imidazol-1-yl)phenyl)-4-chlorobenzenesulfonamide, a Novel Potent Inhibitor of β-Catenin with Enhanced Antitumor Activity and Metabolic Stability” (J Med Chem, 2024).
Active and inactive are the calls of the source. No cut-off for these calls is given here.

Key:
[1] = system: SW480; experiment: Inhibition of cell growth in human SW480 cells incubated for 48 to 72 hrs by XTT method; type: functional, cell-based
[2] = system: HCT-116; experiment: Inhibition of cell growth in human HCT-116 cells incubated for 48 to 72 hrs by XTT method; type: functional, cell-based
[3] = system: SW480; experiment: Inhibition of Wnt/beta-catenin signaling in human SW480 cells assessed as residual activity at IC50 concentration incubated for 12 hrs by Topflash/Fopflash Dual-Glo luciferase reporter assay; type: cell-based; details: dose 30.0 µM
[4] = system: HCT-116; experiment: Inhibition of Wnt/beta-catenin signaling in human HCT-116 cells assessed as residual activity at IC50 concentration incubated for 12 hrs by Topflash/Fopflash Dual-Glo luciferase reporter assay; type: cell-based; details: dose 30.0 µM
[5] = target: T1, Catenin beta-1 (Homo sapiens) (UniProt P35222); experiment: Inhibition of beta-catenin in human HCT-116 cells transfected with luciferase based vectors at 1 to 10 nM incubated for 48 hrs in presence of LiCl; type: cell-based; details: dose 1-10 nM
T1 sequence (whole entry): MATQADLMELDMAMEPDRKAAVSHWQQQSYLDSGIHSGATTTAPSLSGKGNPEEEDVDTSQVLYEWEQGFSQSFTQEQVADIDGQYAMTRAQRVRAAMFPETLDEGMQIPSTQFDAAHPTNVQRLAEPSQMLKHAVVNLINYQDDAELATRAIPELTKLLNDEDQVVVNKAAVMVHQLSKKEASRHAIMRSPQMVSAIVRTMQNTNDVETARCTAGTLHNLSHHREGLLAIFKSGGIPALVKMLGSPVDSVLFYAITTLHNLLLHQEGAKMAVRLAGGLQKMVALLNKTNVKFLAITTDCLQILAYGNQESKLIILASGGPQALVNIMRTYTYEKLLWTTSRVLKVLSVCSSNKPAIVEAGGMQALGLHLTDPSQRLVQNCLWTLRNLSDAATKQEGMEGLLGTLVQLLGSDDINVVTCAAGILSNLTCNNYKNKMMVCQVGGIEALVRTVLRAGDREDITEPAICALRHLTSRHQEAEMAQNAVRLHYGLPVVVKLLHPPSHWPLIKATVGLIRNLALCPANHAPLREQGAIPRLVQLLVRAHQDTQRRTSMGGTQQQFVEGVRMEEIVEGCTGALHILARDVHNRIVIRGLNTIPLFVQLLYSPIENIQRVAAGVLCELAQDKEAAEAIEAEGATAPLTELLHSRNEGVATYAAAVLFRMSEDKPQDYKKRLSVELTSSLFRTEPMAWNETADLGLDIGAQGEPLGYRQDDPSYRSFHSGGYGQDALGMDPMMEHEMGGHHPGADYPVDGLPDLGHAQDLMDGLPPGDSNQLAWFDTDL

[6] = target: T1, Catenin beta-1 (Homo sapiens); experiment: Inhibition of beta-catenin in human HCT-116 cells transfected with luciferase based vectors incubated for 24 hrs in presence of LiCl; type: cell-based; details: dose 50-100 nM
[7] = system: HCT-116; experiment: Downregulation of beta-catenin protein level in human HCT-116 cells incubated for 24 hrs in presence of 50 mM LiCl by Western blotting analysis; type: functional, cell-based; details: dose 10-100 µM
[8] = system: HCT-116; experiment: Downregulation of c-Myc protein level in human HCT-116 cells incubated for 24 hrs in presence of 50 mM LiCl by Western blotting analysis; type: functional, cell-based; details: dose 10-100 µM
[9] = system: HCT-116; experiment: Downregulation of c-Myc mRNA level in human HCT-116 cells incubated for 24 hrs in presence of 50 mM LiCl by qPCR analysis; type: functional, cell-based; details: dose 10-100 µM
[10] = Downregulation of c-Myc mRNA level in human HCT-116 cells at 10 uM incubated for 24 hrs in presence of 50 mM LiCl by qPCR analysis; type: functional
[11] = system: HCT-116; experiment: Downregulation of Fgf20 mRNA level in human HCT-116 cells at 10 uM incubated for 24 hrs by qPCR analysis; type: functional, cell-based
[12] = system: HCT-116; experiment: Downregulation of Sall4 mRNA level in human HCT-116 cells at 10 uM incubated for 24 hrs by qPCR analysis; type: functional, cell-based
[13] = system: HCT-116; experiment: Antitumor activity against human HCT-116 cells xenografted in BALB/c nu/nu mouse assessed as reduction in tumor volume at 25 mg/kg, ip administered every 2 days for 30 day; type: functional, organism-based
[14] = system: HCT-116; experiment: Antitumor activity against human HCT-116 cells xenografted in BALB/c nu/nu mouse assessed as reduction in tumor weight at 25 mg/kg, ip administered every 2 days for 30 day; type: functional, organism-based
[15] = system: HCT-116; experiment: Antitumor activity against human HCT-116 cells xenografted in BALB/c nu/nu mouse assessed as reduction in nuclear Ki67 expression at 25 mg/kg, ip administered every 2 days for 30 day by […] based assay; type: functional, organism-based
[16] = Metabolic stability in human liver microsomes assessed as intrinsic clearance per mg protein preincubated for 10 mins followed by NADP, glucose-6-phosphate and glucose-6-phosphate dehydrogenase addition and measured upto 60 mins by LC-MS/MS analysis; type: ADME, Microsome; details: time < 70 min, read-out: CLH
[17] = Metabolic stability in human liver microsomes assessed as half life preincubated for 10 mins followed by NADP, glucose-6-phosphate and glucose-6-phosphate dehydrogenase addition and measured upto 60 mins by LC-MS/MS analysis; type: ADME, Microsome; details: time < 70 min
[18] = Metabolic stability in mouse liver microsomes assessed as intrinsic clearance per mg protein preincubated for 10 mins followed by NADP, glucose-6-phosphate and glucose-6-phosphate dehydrogenase addition and measured upto 60 mins by LC-MS/MS analysis; type: ADME, Microsome; details: time < 70 min, read-out: CLH
[19] = Metabolic stability in mouse liver microsomes assessed as half life preincubated for 10 mins followed by NADP, glucose-6-phosphate and glucose-6-phosphate dehydrogenase addition and measured upto 60 mins by LC-MS/MS analysis; type: ADME, Microsome; details: time < 70 min
[20] = system: MDA-MB-231; experiment: Antiproliferative activity against human MDA-MB-231 cells at 40 uM incubated for 24 hrs by IncuCyte live-cell imaging analysis; type: functional, cell-based

SMILES | EC50 [1] [µM] | EC50 [2] [µM] | Activity [3] [%] | Activity [4] [%] | also measured
O=c1[nH]cc(F)c(=O)[nH]1 [FLUOROURACIL] | 13.7 | 23.1 | – | – | –
CCOC(=O)c1ccc(NS(=O)(=O)c2ccc(Br)cc2)cc1 | > 50 | > 50 | 21.6 | 18.8 | –
O=S(=O)(Nc1ccc(-c2ccccc2)cc1)c1ccc(C(F)(F)F)cc1 | 8.7 | 12 | 37.3 | 22.4 | –
O=S(=O)(Nc1ccc(-c2ccsc2)cc1)c1ccc(C(F)(F)F)cc1 | 17 | 12 | 5.6 | 2.4 | –
O=S(=O)(Nc1ccc(-n2ccnc2)cc1)c1ccc(Cl)cc1 | 2 | 0.12 | 3.7 | 2.5 | inhibition [5]: Active; inhibition [6]: Dose-Dependent Effect; Activity [7]: Dose-Dependent Effect; Activity [8]: Dose-Dependent Effect; Activity [9]: Dose-Dependent Effect; Activity [10]: 50%; Activity [11]: Active; Activity [12]: Active; Activity [13]: Active; Activity [14]: Active; Activity [15]: Active; microsomal CLint [16]: < 3 µL/min/mg; half-life [17]: > 8.33 h; microsomal CLint [18]: < 3 µL/min/mg; half-life [19]: > 8.33 h
O=S(=O)(Nc1cccc(-n2ccnc2)c1)c1ccc(Cl)cc1 | > 50 | > 50 | 2.3 | 8.4 | –
O=S(=O)(Nc1cccc(-n2ccnc2)c1)c1ccc(C(F)(F)F)cc1 | 28 | 50 | 9.1 | 5.1 | –
O=C1[C@H](Cc2ccc(O)cc2)N2C(=O)CCN(C(=O)NCc3ccccc3)[C@H]2CN1Cc1cccc2ccccc12 | – | – | – | – | Activity [20]: Active
COC(=O)c1ccc(NS(=O)(=O)c2ccc(Br)cc2)cc1 | – | – | 19.4 | 2.5 | –
O=S(=O)(Nc1ccc(-c2ccco2)cc1)c1ccc(C(F)(F)F)cc1 | > 50 | > 50 | 6.6 | 2.4 | –
O=S(=O)(Nc1ccc(-n2ccnc2)cc1)c1ccc(Br)cc1 | > 50 | > 50 | 7.2 | 6.4 | –
O=S(=O)(Nc1ccc(-c2ccccn2)cc1)c1ccc(Br)cc1 | 34 | 24 | 8.8 | 4.3 | –
O=S(=O)(Nc1cccc(-c2ccccn2)c1)c1ccc(-n2cccc2)cc1 | 46 | 66 | 6.3 | 6.4 | –
CC(C)NCC(O)COc1cccc2ccccc12 (stereo not given) [PROPRANOLOL] | – | – | – | – | half-life [17]: 0.587 h
O=S(=O)(Nc1cccc(-c2ccccn2)c1)c1ccc(C(F)(F)F)cc1 | > 50 | > 50 | 3.4 | 6.6 | –
